Results as given in patent publication US10526336B2, “Fused heteroaryl derivatives as orexin receptor antagonists” (Merck Sharp & Dohme Corp., priority 2014, dated 2020).

The compounds below were run against human orexin-2 receptor (Homo sapiens (Human), UniProt O43614) (assay: FLIPR Ca2+ Flux Assay, orexin-2 receptor antagonism in CHO cells). Conditions: CHO cells expressing the human orexin-2 receptor; agonist 70 pM Ala-6,12 orexin-A; read-out: hOX2 FLIPR IC50.
Chain of human orexin-2 receptor (O43614 whole entry): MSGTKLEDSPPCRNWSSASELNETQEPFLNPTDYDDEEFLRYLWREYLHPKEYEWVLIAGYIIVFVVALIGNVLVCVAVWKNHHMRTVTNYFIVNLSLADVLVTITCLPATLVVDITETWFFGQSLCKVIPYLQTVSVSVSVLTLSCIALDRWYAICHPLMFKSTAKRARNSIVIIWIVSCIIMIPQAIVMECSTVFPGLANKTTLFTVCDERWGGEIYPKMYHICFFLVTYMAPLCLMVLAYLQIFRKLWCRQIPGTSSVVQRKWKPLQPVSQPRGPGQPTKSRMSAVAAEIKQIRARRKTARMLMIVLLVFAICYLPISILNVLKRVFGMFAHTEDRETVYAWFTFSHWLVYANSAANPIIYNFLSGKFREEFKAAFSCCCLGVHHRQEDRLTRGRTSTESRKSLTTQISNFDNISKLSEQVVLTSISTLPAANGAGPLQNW
Type: cell-based
Experimental: The utility of the compounds in accordance with the present invention as orexin receptor OX1R and/or OX2R antagonists may be readily determined without undue experimentation by methodology well known in the art, including the “FLIPR Ca^2+ Flux Assay” (Okumura et al., Biochem. Biophys. Res. Comm. 280:976-981, 2001). In a typical experiment the OX1 and OX2 receptor antagonistic activity of the compounds of the present invention was determined in accordance with the following experimental method. For intracellular calcium measurements, Chinese hamster ovary (CHO) cells expressing the rat orexin-1 receptor or the human orexin-2 receptor, are grown in Iscove's modified DMEM containing 2 mM L-glutamine, […], 1% hypoxanthine-thymidine supplement, 100 U/ml penicillin, 100 μg/ml streptomycin and 10% heat-inactivated fetal calf serum (FCS). The cells are seeded at 20,000 cells/well into Becton-Dickinson black 384-well clear bottom sterile plates coated with poly-D-lysine. All reagents are from GIBCO-Invitrogen Corp. The seeded plates are incubated overnight at 37° C. and 5% CO2. Ala-6,12 human orexin-A as the agonist is prepared as a 1 mM stock solution in 1% bovine serum albumin (BSA) and diluted in assay buffer (HBSS containing 20 mM HEPES, 0.1% BSA and 2.5 mM probenecid, pH7.4) for use in the assay at a final concentration of 70 pM. Test compounds are prepared as 10 mM stock solution in DMSO, then diluted in 384-well plates, first in DMSO, then assay buffer. On the day of the assay, cells are washed 3 times with 100 μl assay buffer and then incubated for 60 min (37° C., 5% CO2) in 60 μl assay buffer containing […] Fluo-4AM ester, 0.02% pluronic acid, and 1% BSA. The dye loading solution is then aspirated and cells are washed 3 times with 100 μl assay buffer. 30 μl of that same buffer is left in each well. Within the Fluorescent Imaging Plate Reader (FLIPR, Molecular Devices), test compounds are added to the plate in a volume of 25 μl, incubated for 5 min and finally 25 μl of agonist is added. Fluorescence is measured for each well at 1 second intervals for 5 minutes and the height of each fluorescence peak is compared to the height of the fluorescence peak induced by 70 pM Ala-6,12 orexin-A with buffer in place of antagonist. For each antagonist, IC50 value (the concentration of compound needed to inhibit 50% of the agonist response) is determined. Alternatively, compound potency can be assessed by a radioligand binding assay (described in Bergman et. al. Bioorg. Med. Chem. Lett. 2008, 18, 1425-1430) in which the inhibition constant (Ki) is determined in membranes prepared from CHO cells expressing either the OX1 or OX2 receptor. The intrinsic orexin receptor antagonist activity of a compound which may be used in the present invention may be determined by these assays.
In the case of `C[C@@H]1CC[C@@H](Oc2nccn3c(C(F)(F)F)cnc23)CN1C(=O)c1ccccc1-c1ncccn1` [Example 66, ((2R,5R)-2-methyl-5-((3-(trifluoromethyl)imidazo[1,2-a]pyrazin-8-yl)oxy)piperidin-1-yl)(2-(pyrimidin-2-yl)phenyl)methanone], the IC50 is reported as 14.9 nM.
`C[C@@H]1CC[C@@H](Oc2nccn3nccc23)CN1C(=O)c1ccccc1C1(C#N)CC1` [Example 72, 1-(2-((2R,5R)-2-methyl-5-(pyrazolo[1,5-α]pyrazin-4-yloxy)piperidine-1-carbonyl)phenyl) cyclopropanecarbonitrile] showed an IC50 of 14.3 nM.
Work on `CCCc1ccccc1C(=O)N1C[C@H](Oc2nccn3nccc23)CC[C@H]1C` [Example 82, ((2R,5R)-2-methyl-5-(pyrazolo [1,5-α]pyrazin-4-yloxy)piperidin-1-yl) (2-propylphenyl)methanone] yielded an IC50 of 33.9 nM.
With `C[C@@H]1CC[C@@H](Oc2nccn3c(Br)cnc23)CN1C(=O)c1ccccc1-n1nccn1` [Example 33, (2-(2H-1,2,3-triazol-2-yl)phenyl)((2R,5R)-5-((3-bromoimidazo[1,2-a]pyrazin-8-yl)oxy)-2-methylpiperidin-1-yl)methanone] the IC50 was 8.9 nM.
In the case of `Cc1cn2ccnc(O[C@@H]3CC[C@@H](C)N(C(=O)c4ccccc4-n4nccn4)C3)c2n1` [Example 6, (2-(2H-1,2,3-triazol-2-yl)phenyl)((2R,5R)-2-methyl-5-((2-methylimidazo[1,2-a]pyrazin-8-yl)oxy)piperidin-1-yl)methanone], the IC50 is reported as 8 nM.
`C[C@@H]1CC[C@@H](Oc2nccn3nccc23)CN1C(=O)c1ccc(F)cc1-n1nccn1` [Example 73, (4-fluoro-2-(2H-1,2,3-triazol-2-yl)phenyl)((2R,5R)-2-methyl-5-(pyrazolo[1,5-α]pyrazin-4-yloxy)piperidin-1-yl)methanone] was tested, and the IC50 was 14 nM.
`C[C@@H]1CC[C@@H](Oc2nccn3nccc23)CN1C(=O)c1ccsc1-n1nccn1` [Example 70, (2-(2H-1,2,3-triazol-2-yl)thiophen-3-yl)((2R,5R)-2-methyl-5-(pyrazolo[1,5-a]pyrazin-4-yloxy)piperidin-1-yl)methanone] was tested, and the IC50 was 9.8 nM.
In the case of `C[C@@H]1CC[C@@H](Oc2nccn3c(C(F)F)cnc23)CN1C(=O)c1ncccc1-c1ccccc1` [Example 49, ((2R,5R)-5-((3-(difluoromethyl)imidazo[1,2-α]pyrazin-8-yl)oxy)-2-methylpiperidin-1-yl)(3-phenylpyridin-2-yl)methanone], the IC50 is reported as 51.8 nM.
With `C[C@@H]1CC[C@@H](Nc2nccc3c2cnn3C)CN1C(=O)c1ccccc1-n1nccn1` [Example 96, (2-(2H-1,2,3-triazol-2-yl)phenyl)((2R,5R)-2-methyl-5-((1-methyl-1H-pyrazolo[4,3-c]pyridin-4-yl)amino)piperidin-1-yl)methanone] the IC50 was 60 nM.
Compound `C[C@@H]1CC[C@@H](Oc2nccn3c(C(F)F)cnc23)CN1C(=O)c1cccnc1OCC(F)F` [Example 51, (2-(2,2-difluoroethoxy)pyridin-3-yl)((2R,5R)-5-((3-(difluoromethyl)imidazo[1,2-α]pyrazin-8-yl)oxy)-2-methylpiperidin-1-yl) methanone] has an IC50 of 31.8 nM.
`C[C@@H]1CC[C@@H](Oc2nccn3c(C(F)(F)F)cnc23)CN1C(=O)c1ccccc1-n1nccn1` [Example 57] was tested, and the IC50 was 13.1 nM.
In the case of `C[C@@H]1CC[C@@H](Oc2nccc3ncn(C)c23)CN1C(=O)c1ccccc1-n1nccn1` [Example 99, (2-(2H-1,2,3-triazol-2-yl)phenyl)((2R,5R)-2-methyl-5-((3-methyl-3H-imidazo[4,5-c]pyridin-4-yl)oxy)piperidin-1-yl)methanone], the IC50 is reported as 42.3 nM.
`C[C@@H]1CC[C@@H](Oc2nccn3c(C(F)F)cnc23)CN1C(=O)c1cccnc1-n1cccn1` [Example 52, (2-(1H-pyrazol-1-yl)pyridin-3-yl)((2R,5R)-5-((3-(difluoromethyl)imidazo[1,2-α]pyrazin-8-yl)oxy)-2-methylpiperidin-1-yl)methanone] gave an IC50 of 15.8 nM.
For `C[C@@H]1CC[C@@H](Oc2nccn3nccc23)CN1C(=O)c1cscc1-n1nccn1` [Example 71, (4-(2H-1,2,3-triazol-2-yl)thiophen-3-yl)((2R,5R)-2-methyl-5-(pyrazolo[1,5-α]pyrazin-4-yloxy)piperidin-1-yl)methanone], the IC50 was 16 nM.
`C[C@@H]1CC[C@@H](Oc2nccn3cc(CO)nc23)CN1C(=O)c1ccccc1-n1nccn1` [Example 25, (2-(2H-1,2,3-triazol-2-yl)phenyl)((2R,5R)-5-((2-(hydroxymethyl)imidazo[1,2-a]pyrazin-8-yl)oxy)-2-methylpiperidin-1-yl)methanone] showed an IC50 of 49.3 nM.
With `Cc1cn2ccnc(O[C@@H]3CC[C@@H](C)N(C(=O)c4cscc4-c4ncccn4)C3)c2n1` [Example 13, ((2R,5R)-2-methyl-5-((2-methylimidazo[1,2-a]pyrazin-8-yl)oxy)piperidin-1-yl)(4-(pyrimidin-2-yl)thiophen-3-yl)methanone] the IC50 was 63.7 nM.
`COC(=O)c1ccccc1C(=O)N1C[C@H](Oc2nccn3nccc23)CC[C@H]1C` [Example 79, methyl 2-((2R,5R)-2-methyl-5-(pyrazolo[1,5-α]pyrazin-4-yloxy)piperidine-1-carbonyl)benzoate] gave an IC50 of 44.2 nM.
With `Cc1cn2ccnc(N[C@@H]3CC[C@@H](C)N(C(=O)c4ccccc4-n4nccn4)C3)c2n1` [Example 19, (2-(2H-1,2,3-triazol-2-yl)phenyl)((2R,5R)-2-methyl-5-((2-methylimidazo[1,2-a]pyrazin-8-yl)amino)piperidin-1-yl)methanone] the IC50 was 50.9 nM.
Compound `C[C@@H]1CC[C@@H](Oc2nccn3c(C(F)F)cnc23)CN1C(=O)c1ccccc1-n1nccn1` [Example 38, (2-(2H-1,2,3-triazol-2-yl)phenyl)((2R,5R)-5-((3-(difluoromethyl)imidazo[1,2-a]pyrazin-8-yl)oxy)-2-methylpiperidin-1-yl)methanone] has an IC50 of 17.6 nM.
`C[C@@H]1CC[C@@H](Oc2nccn3nccc23)CN1C(=O)c1ccsc1-c1ncccn1` [Example 75, ((2R,5R)-2-methyl-5-(pyrazolo[1,5-α]pyrazin-4-yloxy)piperidin-1-yl) (2-(pyrimidin-2-yl)thiophen-3-yl) methanone] was tested, and the IC50 was 20.6 nM.
In the case of `C[C@@H]1CC[C@@H](Oc2nccn3ccnc23)CN1C(=O)c1ccccc1CS(C)(=O)=O` [Example 2, ((2R,5R)-5-(imidazo[1,2-a]pyrazin-8-yloxy)-2-methylpiperidin-1-yl)(2-((methylsulfonyl)methyl)phenyl)methanone], the IC50 is reported as 59 nM.
Compound `C[C@@H]1CC[C@@H](Oc2nccn3ncc(Br)c23)CN1C(=O)c1ccccc1-n1nccn1` [Example 88, (2-(2H-1,2,3-triazol-2-yl)phenyl)((2R,5R)-5-((3-bromopyrazolo[1,5-a]pyrazin-4-yl)oxy)-2-methylpiperidin-1-yl)methanone] has an IC50 of 7.3 nM.
`Cc1cn2ccnc(O[C@@H]3CC[C@@H](C)N(C(=O)c4ccsc4-n4nccn4)C3)c2n1` [Example 7, (2-(2H-1,2,3-triazol-2-yl)thiophen-3-yl)((2R,5R)-2-methyl-5-((2-methylimidazo[1,2-a]pyrazin-8-yl)oxy)piperidin-1-yl)methanone] gave an IC50 of 27.4 nM.
`C[C@@H]1CC[C@@H](Oc2nccn3c(Cl)cnc23)CN1C(=O)c1ccsc1-n1nccn1` [Example 29, (2-(2H-1,2,3-triazol-2-yl)thiophen-3-yl)((2R,5R)-5-((3-chloroimidazo[1,2-α]pyrazin-8-yl)oxy)-2-methylpiperidin-1-yl)methanone] was tested, and the IC50 was 14.3 nM.
`Cc1nc2ccnc(N[C@@H]3CC[C@@H](C)N(C(=O)c4ccccc4-n4nccn4)C3)n2n1` [Example 105, (2-(2H-1,2,3-triazol-2-yl)phenyl)((2R,5R)-2-methyl-5-((2-methyl-[1,2,4]triazolo[1,5-c]pyrimidin-5-yl)amino)piperidin-1-yl)methanone] showed an IC50 of 27.6 nM.
In the case of `C[C@@H]1CC[C@@H](Oc2nccn3ccnc23)CN1C(=O)c1ccccc1-n1nccn1` [Example 1, (2-(2H-1,2,3-triazol-2-yl)phenyl)((2R,5R)-5-(imidazo[1,2-a]pyrazin-8-yloxy)-2-methylpiperidin-1-yl)methanone], the IC50 is reported as 35.8 nM.
With `C[C@@H]1CC[C@@H](Oc2nccn3nccc23)CN1C(=O)c1ccccc1-c1ncccn1` [Example 85, ((2R,5R)-2-methyl-5-(pyrazolo[1,5-a]pyrazin-4-yloxy)piperidin-1-yl)(2-(pyrimidin-2-yl)phenyl)methanone] the IC50 was 15.5 nM.
